The values that follow come from patent publication US20230030847A1, “ANTI-MICROBIAL SULFONAMIDE PHARMACEUTICAL COMPOSITIONS FOR EXTERNAL USE” (priority 2021, published 2023).

Data set [1] in a line: stability study of BENZ solution. The data set is classed as physicochemical. On the procedure:
A stability study was conducted. A BENZ solution was stored for 14 days at 54° C. At Day 0, the samples contained an average of 20.26% BENZ. At Day 14, the samples contained an average of 19.97% BENZ.

Data set [2] has as its system rats. As to the kind of experiment: single-dose oral gavage toxicity in rats. To be noted: single gavage dose of liquid containing 20% BENZ, 5 g/kg body weight. The data set is classed as in vivo. An excerpt:
Five rats (Rattus norvegicus) weighing 244 to 272 grams were gavaged with a single dose of liquid containing 20% N-chloro-4-carboxybenzenesulfonamide (BENZ) at a dosage of 5 g/kg body weight.

For data set [3], the system named is Aspergillus brasiliensis. As to the kind of experiment: impregnated test swatch kill test. Type of data set: cell-based. The settings on record: swatches impregnated with 2.5% BENZ; within 1 hour. On the procedure: (§1) Test swatches which had been impregnated with 2.5% BENZ were exposed to Staphylococcus aureus, Pseudomonas aeruginosa, and Aspergillus brasiliensis. A stack of two swatches was placed in a petri dish and then inoculated with 1.000 mL of an inoculum for one of the microorganisms. Following inoculation, the petri dishes were sealed and placed in a plastic bag/container, then incubated at optimal conditions for the given microorganism. Swatches were harvested at 0, 10 minutes, 30 minutes, 1 hour, and 6 hours after inoculation. At harvesting, the swatch was transferred to a neutralization media, then vortex mixed for 1-2 minutes. The neutralization suspension was […] and plated for 18-24 hours for bacteria and 24-72 hours for fungi at optimal incubation conditions.

Data set [4] concerns Staphylococcus aureus. As to the kind of experiment: impregnated test swatch kill test. Type of data set: cell-based. The settings on record: swatches impregnated with 2.5% BENZ; within 30 minutes. On the procedure:
as §1

Data set [5] relates to Pseudomonas aeruginosa. As to the kind of experiment: impregnated test swatch kill test. Type of data set: cell-based. To be noted: swatches impregnated with 2.5% BENZ; within 10 minutes. As for the experimental part:
as §1

Data set [6] relates to skin of guinea pigs. The settings on record: guinea pig, in vivo. On the procedure: Next, 10 guinea pigs were used to test for delayed dermal contact sensitization according to ISO 10993-10, Part 10. A wet gauze patch (25 mm×25 mm) treated with 20% BENZ was applied to the intact skin of each guinea pick for six hours (±30 minutes), three times a week, over a three-week period for a total of nine applications. After a two-week recovery period, the gauze patch was applied again. The skin was then observed for evidence of dermal reaction at 24 and 48 hours after patch removal. […] This test was performed a total of three times with different guinea pigs, and the same results were obtained each time.

The test system of data set [7] is bovine corneas. The data set can be described thus: bovine corneal opacity and permeability (BCOP) test for ocular irritation. The settings on record: 0.75 mL of 20% BENZ solution, 10 minutes exposure, three bovine corneas. As for the experimental part: A bovine corneal opacity and permeability (BCOP) test was performed to determine the potential for ocular irritation.
Each dissected cornea was mounted in a holder that separated into anterior and posterior chambers. The two chambers were filled with a MEM solution, and an opacitometer was used to measure the opacity of the cornea. Next, the MEM solution was removed from the anterior chamber, and the epithelium of three bovine corneas were exposed to 0.75 mL of a 20% BENZ solution for 10 minutes in a manner that covered the entire cornea. The two chambers were then rinsed and refilled with fresh MEM solution. The corneas were then incubated at 32° C. for two hours, and the two chambers were again rinsed and refilled with fresh MEM solution. The opacity was measured again. The MEM solution was then removed from the anterior chamber and the anterior chamber was filled with 1.0 mL of 0.4% sodium fluorescein in Dulbecco's phosphate-buffered saline. After 90 minutes, the fluid in the posterior chamber was removed and the amount of dye that passed through the cornea was measured as the optical density at 490 nm by spectrophotometer. The In Vitro Irritancy Score (IVIS) was calculated to be −0.67, which is a perfect score.

For data set [8], the system named is Influenza A virus, A/PR/8/34 strain, ATCC VR-1469. Type of data set: cell-based. The settings on record: filter medium impregnated with 2.5% BENZ; similar experiment (contact time 30 minutes).
The test system of data set [9] is Candida auris. As to the kind of experiment: impregnated test swatch kill test. Type of data set: cell-based. To be noted: stack of four swatches impregnated with 2.5% BENZ; within 1 hour.
For data set [10], the system named is skin of rabbits. As to the kind of experiment: primary skin irritation according to ISO 10993-10, Part 10. The data set is classed as in vivo, rabbit. To be noted: abraded skin, gauze patches treated with 20% BENZ for 24 hours, observed 1, 24, 48 and 72 hours after patch removal. On the procedure: Next, three rabbits were used for evaluation of primary skin irritation according to ISO 10993-10, Part 10. Two wet gauze patches (25 mm×25 mm) treated with 20% BENZ were applied to the skin of each rabbit in different locations. Each application site was abraded with four parallel epidermal abrasions prior to application of the treated gauze patch. The treated gauze was secured in place for 24 hours, then removed. The skin was then observed for erythema and edema at 1, 24, 48, and 72 hours after patch removal.

Data set [11] concerns Rhinovirus 37, 151-1 strain, ATCC VR-1607. The data set can be described thus: impregnated filter medium virucidal test (TCID50 in MRC-5 cells). Type of data set: cell-based. To be noted: filter medium impregnated with 2.5% BENZ; contact time 30 minutes, 24.7-24.9° C., 39.9-40.5% relative humidity. On the procedure:
Next, a filter medium impregnated with 2.5% BENZ was exposed to a 0.200 mL volume of Rhinovirus 37, 151-1 strain, ATCC VR-1607 for a contact time of 30 minutes at 24.7-24.9° C. and 39.9-40.5% relative humidity. After 30 minutes, the filter medium was transferred to a neutralization medium and vortexed for at least 15 seconds. A 0.1 mL aliquot was removed and a series of 10-fold dilutions was performed in 0.9 mL aliquots of test medium. Each dilution was inoculated into MRC-5 cells. Viral titer was then calculated.

`O=C(O)c1ccc(S(=O)(=O)NCl)cc1` [BENZ, N-chloro-4-carboxybenzenesulfonamide]: the “average BENZ content of samples” value in [1] (Day 0, BENZ solution) worked out at 20.26%; in [1] (Day 14, stored at 54° C.) it was 19.97%. Also, the “survival after seven days” value in data set [2] is “all five rats were still alive”. Also, the kill in data set [3] is recorded as 99.9%; in [4], 99.999%; in [5], 99.999%; in data set [9] it was 99.998%. Moreover, in [6], the “delayed dermal contact sensitization” value is “No evidence was found of delayed dermal contact sensitization”. The “In Vitro Irritancy Score (IVIS)” value in data set [7] is recorded as −0.67. For the same molecule, the results for the “reduction in viral titer” value in data set [8] and in [11] were above 100% and above 99.997%, respectively. Moreover, the erythema and edema entry in data set [10] was “no erythema or edema observed”.
